Key:
[1] = Thermogravimetric (TG) analysis of thermal stability; type: physicochemical; conditions: nitrogen, 50 to 350 °C, 10 °C/min
Method: The thermogravimetric (TG) studies were carried out with a Perkin–Elmer TGA-7 (Perkin Elmer, Inc. Watham, MA, USA) which was calibrated with alumel and nickel at 10 °C·min^−1. The calibration of the oven temperatures was carried out automatically and mass calibrated with a certified sample of 10 mg (ASTM E617, provided by Perkin Elmer, Inc. Watham, MA, USA). TG analyses were performed under a nitrogen atmosphere with a gas flow of 40 mL·min^−1, from 50 to 350 °C, at a heating rate of 10 °C·min^−1, using a sample of approximately 3 mg, in order to obtain the values of the Tonset and Tmax of the degradation process as well as any associated mass loss.

[2] = DSC successive melting-recrystallization cycles, polymorphic behaviour; type: physicochemical; design: key: I: Compounds that show a polymorphic phase transition into an amorphous or mainly amorphous solid form after a first melting–cooling scan; II: Compounds that change into a new polymorphic form with a different Tonset of fusion than the one observed at the first melting–recrystallization scan after cooling; III: These compounds show a fusion process without modifications in the thermal behaviour after an initial fusion–recrystallization cycle; IV: Compounds that show recrystallization or other types of phase transition of the original form into another crystalline one in the first heat scan; V: Compounds without fusion processes at the range of temperatures studied; *: fusion with decomposition; conditions: 10 °C/min
Method: To establish general polymorphic behaviours, samples of all the compounds synthetized (Figure 1) were exposed to successive cycles of melting–recrystallization using DSC. Calorimetric analyses were performed before the beginning of the degradation process (Table 6). […] This behaviour was shown by several compounds: VA1C, VA2E, VA8E, series H, VA6I, VA8J, VA6M and VA8M. DSC and PXRD results of compound VA7H are shown as supplementary material (Figures S1 and S2 and Table S1). • Behaviour II—Compounds that change into a new polymorphic form with a different Tonset of fusion than the one observed at the first melting–recrystallization scan after cooling. These compounds are VA7E and VA8O. DSC and PXRD results of compound VA7E are shown as supplementary material (Figures S3 and S4, Table S2). • Behaviour III—These compounds show a fusion process without modifications in the thermal behaviour after an initial fusion–recrystallization cycle. Consequently, there is no evidence of polymorphic behaviour. The compounds VA2C, VA2M, VA4J and VA5O belong to this group. DSC and PXRD results of compound VA2M are shown as supplementary material (Figures S5 and S6, Table S3). • Behaviour IV—Compounds that show recrystallization or other types of phase transition of the original form into another crystalline one in the first heat scan. In the successive cycles of melting–recrystallization, the new form may not alter its crystalline form or transit to another polymorphic form. Compounds VA6E, VA7J and VA7M show this behaviour. • Behaviour V—Compounds without fusion processes at the range of temperatures studied.
For calorimetric studies a Perkin–Elmer DSC diamond calibrated with indium and zinc (provided by Perkin–Elmer (Perkin Elmer, Inc. Watham, MA, USA) and fabricated according to guideline ISO35) at 10 °C·min^−1 and nitrogen flow of 20 mL·min^−1 was employed. The gas connected to the equipment was nitrogen with a purity of 99.999%. Calorimetric analyses were carried out in aluminium capsules for volatilities of 10 μL, at a heating rate of 10 °C·min^−1, using a sample of approximately 3 mg, in order to establish the Tonset, Tmax and the enthalpy of fusion ∆Hf.
The calorimetric analyses started with the study of the thermal behaviour of the compounds before the process of degradation in order to evidence the possible existence of polymorphism. For this preliminary study, samples of all the compounds were exposed to successive cycles of heating–cooling. All samples were heated from 50 °C to temperatures 15–20 °C below Tonset of the degradation process, in order to ensure that compounds were not degraded (Table 6). After melting the samples, they were left at room temperature for enough time to allow the compounds to recrystallize before the successive thermal process. Additional cycles of heating–cooling were performed if polymorphism was detected.

[3] = system: breast adenocarcinoma (MCF-7) cell line; test: MTT cell viability assay, 72 h, MCF-7; type: cell-based, human; conditions: for SI (selectivity index): GI50(184B5)/GI50(MCF-7); for TGI / GI50 / LD50: MCF-7, 72 h, MTT; for TGI: concentration that completely inhibits cell growth; for GI50: concentration that inhibits 50% cell growth; for LD50: concentration that kills 50% of cells
Method: (§1) The novel synthetic compounds VA2J, VA4J, VA6G, VA6H, VA6I and VA6J were tested in breast adenocarcinoma (MCF-7) and non-malignant mammary-gland-derived (184B5) cell lines to be able to establish their potency and selectivity. The reference drug used was methylseleninic acid (MSA) as a Se-containing structure with promising in vitro and in vivo results against different tumour types. Results are expressed as the concentration that inhibits 50% cell growth (GI50), the concentration that inhibits completely cell growth (TGI) and the concentration that kills 50% of cells (LD50). The selectivity index (SI) is calculated as GI50(184B5)/GI50(MCF-7).
(§2) Cell lines were purchased from the American Type Culture Collection (ATCC, Barcelona, Spain). MCF7 cell lines were grown in Roswell Park Memorial Institute (RPMI) medium (Gibco, Madrid, Spain) supplemented with 10% fetal bovine serum (FBS; Gibco), 100 units/mL penicillin and […] (Gibco, Madrid, Spain). 184B5 cells were grown in DMEM/F12 medium supplemented with 5% FBS, 1x ITS (Lonza, Barcelona, Spain), 100 nM hydrocortisone (Sigma Aldrich, Madrid, Spain), 2 mM sodium pyruvate (Lonza), 20 ng/mL EGF (Sigma Aldrich, Madrid, Spain), 0.3 nM trans-retinoic acid (Sigma-Aldrich) 100 units/mL penicillin and […]. Cells were maintained at 37 °C and 5% CO2.
(§3) Compounds were dissolved in DMSO at a concentration of 0.01 M. Serial dilutions were prepared with non-supplemented medium. The cytotoxic effect of each compound was tested at eight different concentrations ranging between 0.01 and 100 µM.
(§4) A total of 10^4 cells/well in 96 well-plates were treated with either DMSO or increasing concentrations of the corresponding compound for 72 h and cell viability was determined using the MTT (3-(4,5-dimethylthiazol-2-yl)-2,5-diphenyltetrazolium bromide) (Sigma Aldrich, Madrid, Spain) assay. Briefly, cells were incubated with 50 µL of MTT (2 mg/mL stock) for 4 h. The medium was then removed by aspiration and the formazan crystals were dissolved in 150 µL of DMSO. The absorbance was measured at 550 nm in a microplate reader (Sunrise, Tecan, Männedorf, Switzerland). […] Data were obtained from at least three independent experiments performed in quadruplicate.

[4] = system: non-malignant mammary-gland-derived (184B5) cell line; test: MTT cell viability assay, 72 h, 184B5; type: cell-based; conditions: 184B5, 72 h
Method: as §1, §2, §3, §4

Structure (SMILES) | TG To (Tonset of thermal degradation) [1] [°C] | DSC Behaviour (polymorphic/calorimetric behaviour) [2] | further results
CSc1ccc2ccccc2n1 [VA4H] | 105.6 | I | 
COc1cc2oc(=O)cc(C[Se]C(=N)N)c2cc1OC [VA7I] | 226.4 | * | 
Cc1noc(C)c1CSC(=N)N [VA8O] | 201.8 | II | 
N#CSCN1C(=O)c2ccccc2C1=O [VA6M] | 164.8 | I | 
N=C(N)SCc1ccc2c(c1)C(=O)c1ccccc1C2=O [VA8G] | 243.7 | V | 
N=C(N)SCc1cc2c(cc1Br)OCO2 [VA8E] | 215.1 | I | 
N=C(N)[Se]Cc1ccc(-n2cccc2)cc1 [VA7P] | 175.8 | * | 
N=C(N)[Se]Cc1ccc([N+](=O)[O-])o1 [VA7F] | 214.7 | * | 
Cc1noc(C)c1C[Se]C#N [VA5O] | 141.7 | III | 
N=C(N)SCc1ccc2ccccc2n1 [VA8H] | 190.2 | I | 
SCc1cc2c(cc1Br)OCO2 [VA2E] | 266.2 | I | 
C[Se](=O)O [MSA, methylseleninic acid, reference compound] |  |  | SI (selectivity index) [3]: 1.40; TGI [3]: 3.43 µM; GI50 [3]: 1.28 µM; LD50 [3]: >100 µM; GI50 [4]: 1.79 µM; LD50 [4]: >100 µM; TGI [4]: 3.84 µM
N=C(N)SCN1C(=O)c2ccccc2C1=O [VA8M] | 233.1 | I | 
Sc1nc2ccccc2s1 [VA2C] | 224.7 | III | 
N#CSCc1ccc2ccccc2n1 [VA6H, Quinolin-2-ylmethyl Thiocyanate] | 139.1 | I | SI (selectivity index) [3]: 3.25; GI50 ([3]; Homo sapiens, MCF7, 72 h): < 10 µM; TGI [3]: 14.83 µM; GI50 [3]: 8.53 µM; LD50 [3]: 24.18 µM; LD50 [4]: >100 µM; TGI [4]: 75.84 µM; GI50 ([4]; Homo sapiens): 27.8 µM
N=C(N)SCc1nc2ccccc2nc1CSC(=N)N [VA8J] | 251.05 | I | 
COc1cc2oc(=O)cc(CSC(=N)N)c2cc1OC [VA8I] | 272.4 | * | 

Structure (SMILES) | TG To (Tonset of thermal degradation) [1] [°C] | DSC Behaviour (polymorphic/calorimetric behaviour) [2] | further results
N=C(N)[Se]Cc1cc2c(cc1Br)OCO2 [VA7E] | 205.2 | II | 
CSc1nc2ccccc2s1 [VA4C] | 131.8 | V | 
N=C(N)[Se]CN1C(=O)c2ccccc2C1=O [VA7M] | 255.8 | IV | 
Cc1noc(C)c1C[Se]C(=N)N [VA7O] | 185.9 | V | 
COc1cc2oc(=O)cc(CSC#N)c2cc1OC [VA6I, (6,7-Dimethoxy-2-oxo-2H-chromen-4-yl)methyl Thiocyanate] | 246.9 | I | SI (selectivity index) [3]: 0.50; TGI [3]: >100 µM; LD50 [3]: >100 µM; LD50 [4]: >100 µM; TGI [4]: >100 µM; GI50 ([4]; Homo sapiens): 2.26 µM
N#C[Se]Cc1ccc(-n2cccc2)cc1 [VA5P] | 149.4 | * | 
CSc1ccnc(SC)n1 [VA4B] | 103.5 | V | 
[SeH]Cc1c2ccccc2nc2ccccc12 [VA1D] | 244.7 | V | 
N=C(N)SCc1ccc([N+](=O)[O-])o1 [VA8F] | 190.8 | * | 
N=C(N)[Se]Cc1ccc2ccccc2n1 [VA7H] | 145.8 | I | 
[SeH]c1nc2ccccc2s1 [VA1C] | 218.4 | I | 
N#CSCc1c2ccccc2nc2ccccc12 [VA6D] | 205.0 | V | 
N=C(N)SCc1ccc(-n2cccc2)cc1 [VA8P] | 199.8 | * | 
O=C1c2ccccc2C(=O)N1CS [VA2M] | 166.0 | III | 
N=C(N)SCc1c2ccccc2nc2ccccc12 [VA8D] | 193.1 | * | 
Sc1ccnc(S)n1 [VA2B] | 263.3 | V | 
N=C(N)[Se]Cc1ccc2c(c1)C(=O)c1ccccc1C2=O [VA7G] | 198.2 | V | 

Source: PMC6152329, “Antitumoural Sulphur and Selenium Heteroaryl Compounds: Thermal Characterization and Stability Evaluation” (Molecules : A Journal of Synthetic Chemistry and Natural …, 2017)
